Laboratory results as given in publication PMC11520566, “Discovery of pyrazole-based analogs as CDK2 inhibitors with apoptotic-inducing activity: design, synthesis and molecular dynamics study” (RSC Advances, 2024).

Tested on: HCT-116 cells
Test: Flow cytometry cell cycle analysis
Assay type: cell-based
Conditions: 1.806 μM
Protocol: Cell cycle analysis was conducted to explore the mechanism and the mode of action of the newly synthesized compounds as anticancer agents, typically inducing cytotoxicity by activating signaling pathways that trigger apoptosis.[35] […] Compound 4 was further subjected to cell cycle analysis following the established protocols.[35]
The cell cycle analysis protocol was performed on compound 4 on HCT-116 cells. This test is based on the content of DNA measured by staining using propidium iodide. Initially, the cells were washed in PBS before being kept at 4 °C for 3 min dropwise using the vortex addition of cold 70% ethanol to avoid cell clumping and to ensure fixation as well. Then, […] of a stock of […] ribonuclease was added to selectively stain only DNA. Finally, […] of a stock solution of […] of propidium iodide was added.[35]

CC(=NNc1ccc(S(N)(=O)=O)cc1)c1ccc(NN=C2C(=O)NN=C2Nc2ccccc2)cc1 [Compound 4, 4-(2-(1-(4-(2-(5-oxo-3-(phenylamino)-1,5-dihydro-4H-pyrazol-4-ylidene)hydrazinyl)phenyl)ethylidene)hydrazinyl)benzene sulfonamide]
cell cycle result: apoptotic cell growth arrest occurring at the G1 phase
%G2/M (control 6.82): 3.79%
%S (control 33.81): 23.05%
%G0/G1 (control 59.37): 73.16%
cell cycle result (listed as cpd4): cell growth arrest@ G1
